# From ChEMBL document CHEMBL1140730, “Validation of diacyl glycerolacyltransferase I as a novel target for the treatment of obesity and dyslipidemia using a potent and selective small molecule inhibitor” (J Med Chem, 2008)
# Biological target: T1, Diacylglycerol O-acyltransferase 1 (Mus musculus, UniProt Q9Z2A7)
# T1 sequence (Q9Z2A7 whole entry): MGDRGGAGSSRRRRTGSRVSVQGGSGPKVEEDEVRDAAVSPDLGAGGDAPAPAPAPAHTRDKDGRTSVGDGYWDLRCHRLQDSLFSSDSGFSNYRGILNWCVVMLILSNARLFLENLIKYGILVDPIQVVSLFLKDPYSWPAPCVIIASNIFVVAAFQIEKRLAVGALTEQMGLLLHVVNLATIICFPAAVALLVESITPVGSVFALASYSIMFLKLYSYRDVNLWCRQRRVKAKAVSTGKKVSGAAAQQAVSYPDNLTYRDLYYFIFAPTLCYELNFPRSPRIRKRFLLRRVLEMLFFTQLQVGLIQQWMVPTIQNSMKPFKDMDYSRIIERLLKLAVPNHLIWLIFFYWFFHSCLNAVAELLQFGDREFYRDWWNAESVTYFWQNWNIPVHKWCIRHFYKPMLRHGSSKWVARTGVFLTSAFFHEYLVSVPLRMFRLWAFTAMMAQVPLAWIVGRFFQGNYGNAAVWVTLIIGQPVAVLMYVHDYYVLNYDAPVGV
# Experiment: Inhibition of mouse recombinant DGAT1 expressed in Sf9 cells
row,IC50,SMILES
1,39 nM,O=C(Nc1ccc(-c2ccc(C(=O)[C@@H]3CCC[C@H]3C(=O)O)cc2)cc1)Nc1cccc(F)c1
2,603 nM,N#Cc1ccc(NC(=O)Nc2ccc(-c3ccc(C(=O)[C@@H]4CCC[C@H]4C(=O)O)cc3)cc2)cc1
3,16 nM,O=C(Nc1ccc(-c2ccc(C(=O)[C@@H]3CCC[C@H]3C(=O)O)cc2)cc1)Nc1ccccc1C(F)(F)F
